Test results published in patent US7235267B1, “Brain cell or nerve cell-protecting agents comprising medicinal ginseng” (priority 1999, dated 2007).

Assays:
[1] = system: SH-SP rats with MCA permanent occlusion; experiment: TTC staining of cerebral infarct lesion 24 hours after MCA permanent occlusion; assay type: in vivo, rat
[2] = system: Wistar rats with spinal cord injury; experiment: Spinal cord injury model (20 g compression on lower thoracic cord for 20 minutes); assay type: in vivo, rat; settings: for paralysis or paraplegia of both lower limbs: Solu-Medrol intravenous 30 mg/kg on the same schedule, 30 mg/kg
Text: The present inventors have investigated the effects of repetitive or continuous intravenous administration of ginsenoside Rb1 using rats with spinal cord injury and the effects were compared with those of repetitive or continuous intravenous administration of a crude saponin fraction of medicinal ginseng. If pressure is loaded on certain spinal segments such as the lower thoracic cord, not only nerve cells (neurons) in the gray matter of the same region but also fiber tracts or pathways in the white matter of the same region are damaged. The damages to the fiber tracts or pathways of the white matter are further developed to the distal portions (caudal portions) as well as causing the secondary degeneration of the origins of the fiber tract or pathways, namely the upper nerve cell bodies (i.e. origins) which project fibers (nerve processes) to the fiber tracts or pathways. As a result, the damages to the fiber tracts or pathways of the white matter in the lower thoracic cord, which received compression loading, induce the secondary degeneration of the origins (nerve cell bodies) sending fibers (also termed nerve processes or axons) to the fiber tracts or pathways as well as the secondary degeneration of fiber tracts located distal to the lower thoracic cord (i.e. lumbar cord and sacral cord) to cause paraplegia of both limbs. Further, since the innervation from the brain regions proximal to the lumbar cord and sacral cord is cut off due to damage to the lower thoracic cord, the secondary degeneration of nerve cells in the gray matters of the lumbar cord and sacral cord is further induced, as a result, paraplegia of the limbs can not be recovered. For that model of the spinal cord injury, the present inventors have used male Wistar rats (body weight about 300 g) loaded with 20 g of compression on the lower thoracic cord for 20 minutes.
Under inhalation anesthesia by a mixture of nitrous oxide and halothane, the rats were loaded with 20 g of compression on the lower thoracic cord for 20 minutes. After more than 30 minutes passed, ginsenoside Rb1 dissolved in physiological saline was injected once into the left femoral vein (12 μg or 60 μg), thereafter continuous or repetitive intravenous administration of ginsenoside Rb1 was performed for 7 days by using an Alza osmotic minipump (12 μg/day or 60 μ/day). Control animals and sham-operated animals were administered with the same amount of physiological saline (vehicle) alone. The open field locomotor scores [Basso, Bettie and Bresnakan (BBB) scores] were measured in each animal before loading spinal cord injury, on the day of spinal cord injury and from 1st day to 7th day after the spinal cord injury for use as an index of motor functions (Basso D. M. et al., J. Neurotrauma, 13, 343-359, 1996). BBB scores of the sham-operated rats (normal rats) were 20-21.
Under inhalation anesthesia by a mixture of nitrous oxide and halothane, the rats were loaded with 20 g of compression on the lower thoracic cord for 20 minutes. More than 30 minutes later, the crude saponin fraction dissolved in physiological saline was infused once into the left femoral vein (870 μg), thereafter continuous intravenous administration of the crude saponin fraction was performed for 7 days by using an Alza osmotic minipump (870 μg/day). Control animals with spinal cord injuries were administered with the same amount of physiological saline (vehicle) alone. […] These figures are photographs in place of drawings.
Under inhalation anesthesia by a mixture of nitrous oxide and halothane, wistar rats (body weight about 300 g) were loaded with 20 g of compression on the lower thoracic cord for 20 minutes. After they were awakened from anesthesia, the rats with paraplegia in both hindlimbs were allowed to stay for 1 hour and 40 minutes in the cage. […]

Row | SMILES | cerebral infarct lesion (TTC staining) ([1]; dihydroginsenoside Rb1 intravenous 6 μg/day for 24 hours after MCA permanent occlusion) | volume of cerebral infarct lesion relative to non-administered group ([1]; intravenous low doses) | experimental animals died within 7 days after spinal cord injuries ([2]; Solu-Medrol 30 mg/kg, 4 out of 10 rats) | paralysis or paraplegia of both lower limbs [2] | paralysis or paraplegia of both lower limbs ([2]; listed as Solu-Medol) | healing of the operative dorsal wounds / ill effects ([2]; rat, in vivo)
1 | CC(C)CCC[C@](C)(O[C@@H]1O[C@H](CO[C@@H]2O[C@H](CO)[C@@H](O)[C@H](O)[C@H]2O)[C@@H](O)[C@H](O)[C@H]1O)[C@H]1CC[C@]2(C)[C@@H]1[C@H](O)C[C@@H]1[C@@]3(C)CC[C@H](O[C@@H]4O[C@H](CO)[C@@H](O)[C@H](O)[C@H]4O[C@@H]4O[C@H](CO)[C@@H](O)[C@H](O)[C@H]4O)C(C)(C)[C@@H]3CC[C@]12C [dihydroginsenoside Rb1] | markedly reduced | about ¼ | – | – | – | –
2 | C[C@H]1C[C@@H]2[C@H]([C@@H](O)C[C@@]3(C)[C@H]2CC[C@]3(O)C(=O)COC(=O)CCC(=O)[O-])[C@@]2(C)C=CC(=O)C=C12.[Na+] [reference compound] | – | – | about 40% | no significant ameliorating effects | could not ameliorate | obviously delayed
